12 compounds from patent publication US7973012B2, “C-phenyl glycitol compound” (Taisho Pharmaceutical Co., Ltd, priority 2006, dated 2011) can be followed below.

The target in one experiment is T1, human SGLT1 (Homo sapiens, UniProt P13866).
T1 construct: expressed in transfected cells; host or cells: CHO-k1
T1 sequence (P13866 1-664): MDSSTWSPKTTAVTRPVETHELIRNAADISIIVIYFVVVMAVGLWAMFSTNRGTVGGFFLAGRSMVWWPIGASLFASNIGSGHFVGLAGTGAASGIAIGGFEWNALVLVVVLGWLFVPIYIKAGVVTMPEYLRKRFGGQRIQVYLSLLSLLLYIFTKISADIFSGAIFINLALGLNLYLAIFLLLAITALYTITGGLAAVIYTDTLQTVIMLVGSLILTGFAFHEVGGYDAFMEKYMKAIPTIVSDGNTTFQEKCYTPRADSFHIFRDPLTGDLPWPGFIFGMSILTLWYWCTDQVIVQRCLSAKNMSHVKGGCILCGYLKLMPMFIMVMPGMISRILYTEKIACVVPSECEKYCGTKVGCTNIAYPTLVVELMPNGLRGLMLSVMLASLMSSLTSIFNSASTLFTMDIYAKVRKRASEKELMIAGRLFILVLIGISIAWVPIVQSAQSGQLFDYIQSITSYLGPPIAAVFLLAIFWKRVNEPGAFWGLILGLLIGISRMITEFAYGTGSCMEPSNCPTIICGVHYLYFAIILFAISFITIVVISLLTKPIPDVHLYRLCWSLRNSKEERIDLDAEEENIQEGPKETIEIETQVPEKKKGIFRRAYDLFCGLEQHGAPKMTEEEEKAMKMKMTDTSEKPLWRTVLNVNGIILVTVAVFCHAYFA
Nature of the experiment: Inhibition test of sodium-dependent sugar uptake in CHO-k1 cells stably expressing human SGLT1. The format is cell-based. The conditions noted are these: for IC50: CHO-k1 cells expressing human SGLT1, [14C]methyl α-D-glucopyranoside uptake, 37° C., 30 minutes; for SGLT1 % inhibition at 100 nM: sugar uptake inhibition rate at 100 nM test compound vs control group. The procedure: (§1) An SGLT1 sequence (NM_000343) was reverse-transcripted from human small intestinal mRNA, then amplified, and then introduced into pCMV-tag5A from Stratagene Corporation. An SGLT2 sequence (NM_003041) was prepared from human nephric mRNA as with the above method, and then introduced into pcDNA3.1+hygro from Invitrogen Corporation. Each cloned sequence was confirmed to be identical with the reported sequence.
(§2) The human SGLT1 and human SGLT2 expression vectors were transfected into CHO-k1 cells by using Lipofectamine 2000 from Invitrogen Corporation. The SGLT expression cells were incubated in the presence of Geneticin (SGLT1) or Hygromycin B (SGLT2) at a 500 μg/mL concentration to select resistant strains, and specific activity of sugar uptake was obtained as an indicator by the following system.
(§3) Cells stably expressing human SGLT1 and human SGLT2 were used for the inhibition test of sodium-dependent glucose uptake.
(§4) The cells were incubated in a pretreatment buffer A (200 μL for SGLT1, and 2 mL for SGLT2) for 20 minutes. The pretreatment buffer was removed and an uptake buffer B (75 μL for SGLT1, and 200 μL for SGLT2) containing a test compound was added to conduct an uptake reaction at 37° C. for 30 minutes (SGLT1) or an hour (SGLT2). After the reaction, the cells were washed with a washing buffer C twice (200 μL for SGLT1, and 2 mL for SGLT2), and then dissolved in a 0.2 M solution of NaOH (75 μL for SGLT1, and 400 μL for SGLT2). After a liquid scintilater was added thereto and mixed sufficiently, radioactivity was measured with microBETA (SGLT1) or a liquid scintillation counter from Beckman Coulter, Inc (SGLT2). As a control group, an uptake buffer containing no test compound was prepared. In addition, as the basic uptake buffer, an uptake buffer B containing choline chloride instead of NaCl was prepared. • A pretreatment buffer A: 140 mM choline chloride, 2 mM KCl, 1 mM CaCl2, 1 mM MgCl2, 10 mM HEPES/5 mM Tris, pH 7.4. • An uptake buffer B: 1 mM of methyl α-D-glucopyranoside containing [^14C]methyl α-D-glucopyranoside, 140 mM NaCl, 2 mM KCl, 1 mM CaCl2, 1 mM MgCl2, 10 mM HEPES/5 mM Tris, pH 7.4. • A washing buffer C: 10 mM methyl α-D-glucopyranoside, 140 mM choline chloride, 2 mM KCl, 1 mM CaCl2, 1 mM MgCl2, 10 mM HEPES/5 mM Tris, pH 7.4.
(§5) In order to obtain IC50 values, test compounds having adequate 6 concentrations were used and the test compound concentrations (IC50 values) at which sugar uptake is inhibited by 50% in comparison with the amount of sugar uptake (100%) of the control group were calculated.
(§6) In addition, the sugar uptake inhibition rates at 100 nM concentration of the test compound in comparison with the control group are shown in Table 7.

For another experiment, the target named is T2, human SGLT2 (Homo sapiens, UniProt P31639).
T2 construct: expressed in transfected cells; host or cells: CHO-k1
T2 sequence (P31639 1-672): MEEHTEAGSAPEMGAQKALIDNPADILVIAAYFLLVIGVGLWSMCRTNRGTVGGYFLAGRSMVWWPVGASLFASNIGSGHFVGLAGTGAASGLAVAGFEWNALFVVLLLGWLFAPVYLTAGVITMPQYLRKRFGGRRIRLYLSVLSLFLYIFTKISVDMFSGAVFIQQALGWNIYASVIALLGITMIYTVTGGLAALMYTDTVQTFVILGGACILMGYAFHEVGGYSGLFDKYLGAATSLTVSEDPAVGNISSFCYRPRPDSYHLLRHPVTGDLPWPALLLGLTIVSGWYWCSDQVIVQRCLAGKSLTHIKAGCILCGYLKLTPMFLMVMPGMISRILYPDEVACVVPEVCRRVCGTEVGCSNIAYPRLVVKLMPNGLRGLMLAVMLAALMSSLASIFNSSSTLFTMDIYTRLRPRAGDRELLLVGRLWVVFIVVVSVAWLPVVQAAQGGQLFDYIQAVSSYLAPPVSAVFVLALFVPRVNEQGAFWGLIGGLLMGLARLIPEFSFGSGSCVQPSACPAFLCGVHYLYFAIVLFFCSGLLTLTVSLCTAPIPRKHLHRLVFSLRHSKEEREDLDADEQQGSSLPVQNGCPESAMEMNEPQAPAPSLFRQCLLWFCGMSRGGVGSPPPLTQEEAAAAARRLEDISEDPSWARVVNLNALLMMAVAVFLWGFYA
Kind of experiment: Inhibition test of sodium-dependent sugar uptake in CHO-k1 cells stably expressing human SGLT2. The format is cell-based. The conditions noted are these: for IC50: CHO-k1 cells expressing human SGLT2, [14C]methyl α-D-glucopyranoside uptake, 37° C., an hour; for SGLT2 % inhibition at 100 nM: sugar uptake inhibition rate at 100 nM test compound vs control group. The procedure: as §1, §2, §3, §4, §5, §6

Experiment [1] concerns Streptozotocin diabetic model rats. Kind of experiment: Oral glucose tolerance test in streptozotocin diabetic model rats. The format is in vivo. The conditions noted are these: Rattus norvegicus; STZ diabetic SD/IGS rats; 1 mg/kg oral, glucose 2 g/kg oral 5 minutes later; decrease rate of ΔAUC 0-1 h vs control group; read-out: STZ rats-OGTT(2 g/kg) % inhibition ΔAUC0-1 h(mgh/dL) @1 mg/kg. The procedure: 7-week-old SD/IGS rats (from CHARLES RIVER LABORATORIES JAPAN, INC., male) were fasted for about 16 hours. Then to these rats under etherization were administered 50 mg/kg of streptozotocin (STZ) via the tail vein to prepare diabetic model rats. Similarly, to rats under etherization were administered 1 mL/kg physiological saline containing 1.25 mmol/L of citric acid via tail veins to prepare normal control rats. One week (8 weeks old) after administration of STZ or 1.25 mmol/L citric acid physiological saline, the rats were subjected to oral glucose tolerance test.
After the rats were fasted for about 16 hours, the medicament (1 mg/kg) suspended in a 0.5% carboxymethyl cellulose (CMC) aqueous solution was orally administered to a medicament treated group, and only a 0.5% aqueous solution of CMC was orally administered to a control group. At 5 minutes after the administration, a glucose solution (2 g/kg) was orally administered to each rat, and blood was collected at 5 points in total: before the administration (0 time), after 0.25, 0.5, 1 and 2 hours after the oral administration.
The blood was collected from the orbital sinus venosus of each rat under etherization with a heparin-coated blood collection tube and centrifuged, and then blood plasma was separated. The concentration of glucose in the blood plasma was determined with Glucose CII Test Wako from Wako Pure Chemical Industries, Ltd. As for the intensity of inhibitory effect on elevation of blood glucose level, area under the blood glucose level curve (AUC) was calculated by the trapezoidal rule based on the blood glucose levels of the medicament treated group from 0 time to 1 hour time. And a basal value is subtracted from AUC to describe the intensity as area under the blood glucose level increment (ΔAUC) and describe the intensity as a decrease rate from the ΔAUC of the control group.

Usually IC50 stands for the concentration at which inhibition is half-maximal. A low value points to inhibition by little substance.

Regarding `Cc1cc(O)c([C@@H]2O[C@H](CO)[C@@H](O)[C@H](O)[C@H]2O)cc1Cc1ccc(CCCC(=O)NC(C)(C)CO)cc1` [Compound 1, (1S)-1,5-anhydro-1-[2-hydroxy-5-[4-[4-[(2-hydroxy-1,1-dimethylethyl)amino]-4-oxobutyl]benzyl]-4-methylphenyl]-D-glucitol], the values for the IC50 on human SGLT1 and against human SGLT2 were 11 nM and 17 nM, respectively. The inhibition in vivo at 1 mg/kg in experiment [1] is 41.7%.
As for `Cc1cc(O)c([C@@H]2O[C@H](CO)[C@@H](O)[C@H](O)[C@H]2O)cc1Cc1ccc(CCNC(=O)NC(C)(C)CO)cc1` [Compound 10, (1S)-1,5-anhydro-1-[5-[4-[2-[[(2-hydroxy-1,1-dimethylethyl)aminocarbonyl]amino]ethyl]benzyl]-2-hydroxy-4-methylphenyl]-D-glucitol], the IC50 on human SGLT1 stood at 51 nM; against human SGLT2 it was 23 nM. Further, the inhibition in vivo at 1 mg/kg in experiment [1] was found to be 67.8%.
With `Cc1cc(O)c([C@@H]2O[C@H](CO)[C@@H](O)[C@H](O)[C@H]2O)cc1Cc1ccc(CCCNC(=O)NC(C)(C)CO)cc1` [Compound 8, (1S)-1,5-anhydro-1-[5-[4-[3-[[(2-hydroxy-1,1-dimethylethyl)aminocarbonyl]amino]propyl]benzyl]-2-hydroxy-4-methylphenyl]-D-glucitol], the IC50 against human SGLT1 amounted to 65 nM; against human SGLT2, 29 nM. Moreover, the inhibition in vivo at 1 mg/kg in experiment [1] was determined as 45.1%.
Consider `Cc1cc(O)c([C@@H]2O[C@H](CO)[C@@H](O)[C@H](O)[C@H]2O)cc1Cc1ccc(CCCC(=O)NC(C)(CO)CO)cc1` [Compound 2, (1S)-1,5-anhydro-1-[2-hydroxy-5-[4-[4-[[2-hydroxy-1-(hydroxymethyl)-1-methylethyl]amino]-4-oxobutyl]benzyl]-4-methylphenyl]-D-glucitol], for which the IC50 against human SGLT1 is 32 nM; against human SGLT2, 18 nM. For the same compound, the inhibition in vivo at 1 mg/kg in experiment [1] is 51.6%.
For `Cc1cc(O)c([C@@H]2O[C@H](CO)[C@@H](O)[C@H](O)[C@H]2O)cc1Cc1ccc(CCNC(=O)NC(CO)(CO)CO)cc1` [Compound 11, (1S)-1,5-anhydro-1-[5-[4-[2-[[[2-hydroxy-1,1-bis(hydroxymethyl)ethyl]aminocarbonyl]amino]ethyl]benzyl]-2-hydroxy-4-methylphenyl]-D-glucitol], the results for the IC50 against human SGLT1 and against human SGLT2 were 59 nM and 34 nM, respectively. The inhibition in vivo at 1 mg/kg in experiment [1] turned out to be 69.3%.
For `Cc1cc(O)c([C@@H]2O[C@H](CO)[C@@H](O)[C@H](O)[C@H]2O)cc1Cc1ccc(CCCNC(=O)NC(CO)(CO)CO)cc1` [Compound 9, (1S)-1,5-anhydro-1-[5-[4-[3-[[[2-hydroxy-1,1-bis(hydroxymethyl)ethyl]aminocarbonyl]amino]propyl]benzyl]-2-hydroxy-4-methylphenyl]-D-glucitol], in that order: 175 nM, 29 nM and 50.1%.
For `Cc1cc(O)c([C@@H]2O[C@H](CO)[C@@H](O)[C@H](O)[C@H]2O)cc1Cc1ccc(CCNC(=O)N[C@H](CO)Cc2ccccc2)cc1` [Compound 48], the “SGLT1 % inhibition at 100 nM” value on human SGLT1 came to 73%. For the same compound, the “SGLT2 % inhibition at 100 nM” value on human SGLT2 is on record as 87%.
For the compound `Cc1cc(O)c([C@@H]2O[C@H](CO)[C@@H](O)[C@H](O)[C@H]2O)cc1Cc1ccc(CCNC(=O)NC2CCCc3ccccc32)cc1` (stereo partly drawn) [Compound 35], the IC50 against human SGLT1 turned out to be 83 nM; against human SGLT2, 34 nM.
On to `Cc1cc(O)c([C@@H]2O[C@H](CO)[C@@H](O)[C@H](O)[C@H]2O)cc1Cc1ccc(CCNC(=O)NCC(O)COc2ccccc2)cc1` (stereo partly drawn) [Compound 66], for which the “SGLT1 % inhibition at 100 nM” value at human SGLT1 was 62%. Moreover, the “SGLT2 % inhibition at 100 nM” value at human SGLT2 was 83%.
For `Cc1cc(O)c(C2OC(CO)C(O)C(O)C2O)cc1Cc1ccc(CCNC(=O)Nc2ccccc2C(O)c2ccccc2)cc1` (mixture of isomers) [Compound 137], the “SGLT1 % inhibition at 100 nM” value on human SGLT1 is on record as 71%. Also, on human SGLT2, the “SGLT2 % inhibition at 100 nM” value stood at 79%.
Consider `CSCCNC(=O)NCCc1ccc(Cc2cc([C@@H]3O[C@H](CO)[C@@H](O)[C@H](O)[C@H]3O)c(O)cc2C)cc1` [Compound 29], for which the IC50 against human SGLT1 turned out to be 75 nM; against human SGLT2, 17 nM.
With `Cc1cc(O)c([C@@H]2O[C@H](CO)[C@@H](O)[C@H](O)[C@H]2O)cc1Cc1ccc(CCNC(=O)NCC2CCCCC2)cc1` [Compound 28], the IC50 is 64 nM at human SGLT1 and 18 nM at human SGLT2.
